What was measured:
[1] = molecular target: T1, recombinant BACE1 protein (Homo sapiens (Human), UniProt P56817); test: BACE1 Biochemical FRET based assay - Method 1; conditions: 1 μg/ml BACE1, 10 μM substrate, 120 min, pH 5.0
Source text: (§1) This assay is a Fluorescence Resonance Energy Transfer Assay (FRET) based assay. The substrate for this assay is an APP derived 13 amino acids peptide that contains the ‘Swedish’ Lys-Met/Asn-Leu mutation of the amyloid precursor protein (APP) beta-secretase cleavage site. This substrate also contains two fluorophores: (7-methoxycoumarin-4-yl) acetic acid (Mca) is a fluorescent donor with excitation wavelength at 320 nm and emission at 405 nm and 2,4-Dinitrophenyl (Dnp) is a proprietary quencher acceptor. […] Upon cleavage by BACE1, the fluorophore Mca is separated from the quenching group Dnp, restoring the full fluorescence yield of the donor. The increase in fluorescence is linearly related to the rate of proteolysis.
Briefly in a 384-well format recombinant BACE1 protein in a final concentration of 1 μg/ml is incubated for 120 minutes at room temperature with […] substrate in incubation buffer (40 mM Citrate buffer pH 5.0, 0.04% PEG, 4% DMSO) in the absence or presence of compound. Next the amount of proteolysis is directly measured by fluorescence measurement at T=0 and T=120 (excitation at 320 nm and emission at 405 nm). Results are expressed in RFU (Relative Fluorescence Units), as difference between T120 and TO.

[2] = molecular target: T1, recombinant BACE1 protein; test: BACE1 Biochemical FRET based assay - Method 2; conditions: 0.04 μg/ml BACE1, 20 μM substrate, 450 min, pH 5.0
Source text: as §1
Briefly in a 384-well format recombinant BACE1 protein in a final concentration of 0.04 μg/ml is incubated for 450 minutes at room temperature with 20 μM substrate in incubation buffer (50 mM Citrate buffer pH 5.0, 0.05% PEG) in the presence of compound or DMSO. Next the amount of proteolysis is directly measured by fluorescence measurement (excitation at 320 nm and emission at 405 nm) at different incubation times (0, 30, 60, 90, 120 and 450 min). For every experiment a time curve (every 30 min between 0 min and 120 min) is used to determine the time where we find the lowest basal signal of the high control. The signal at this time (Tx) is used to subtract from the signal at 450 min. Results are expressed in RFU, as difference between T450 and Tx.

[3] = system: Abeta 1-42 secreted by human neuroblastoma SKNBE2 cells expressing wild type hAPP695; test: BACE1 cellular αLisa assay in SKNBE2 cells, Abeta 1-42; format: cell-based; conditions: 18 hours incubation; for IC50: Homo sapiens, read-out: Cellular αLisa assay in SKNBE2 cells Abeta 42 pIC50 (converted)
Procedure: (§2) In two αLisa assays the levels of Abeta total and Abeta 1-42 produced and secreted into the medium of human neuroblastoma SKNBE2 cells are quantified. The assay is based on the human neuroblastoma SKNBE2 expressing the wild type Amyloid Precursor Protein (hAPP695). The compounds are diluted and added to these cells, incubated for 18 hours and then measurements of Abeta 1-42 and Abeta total are taken. Abeta total and Abeta 1-42 are measured by sandwich αLisa. αLisa is a sandwich assay using biotinylated antibody AbN/25 attached to streptavidin coated beads and antibody Ab4G8 or cAb42/26 conjugated acceptor beads for the detection of Abeta total and Abeta 1-42 respectively. In the presence of Abeta total or Abeta 1-42, the beads come into close proximity. The excitation of the donor beads provokes the release of singlet oxygen molecules that trigger a cascade of energy transfer in the acceptor beads, resulting in light emission.

[4] = system: Abeta total secreted by human neuroblastoma SKNBE2 cells expressing wild type hAPP695; test: BACE1 cellular αLisa assay in SKNBE2 cells, Abeta total; format: cell-based; conditions: 18 hours incubation; for IC50: Homo sapiens, read-out: Cellular αLisa assay in SKNBE2 cells Abetatotal pIC50 (converted)
Procedure: as §2

[5] = molecular target: recombinant BACE2 protein (Homo sapiens (Human), UniProt Q9Y5Z0); test: BACE2 Biochemical FRET based assay; conditions: 0.4 μg/ml BACE2, 10 μM substrate, 450 min, pH 5.0
Source text: as §1, with “assay” for “assay is an APP derived 13 amino acids peptide that”, “the beta-secretase,” for “BACE1,”
Briefly in a 384-well format recombinant BACE2 protein in a final concentration of 0.4 μg/ml is incubated for 450 minutes at room temperature with 10 μM substrate in incubation buffer (50 mM Citrate buffer pH 5.0, 0.05% PEG, no DMSO) in the absence or presence of compound. Next the amount of proteolysis is directly measured by fluorescence measurement at T=0 and T=450 (excitation at 320 nm and emission at 405 nm). Results are expressed in RFU (Relative Fluorescence Units), as difference between T450 and TO.

[6] = system: brain levels of soluble Aβ42, Aβ40; test: In vivo Aβ lowering in non-transgenic rodents (MSD electrochemiluminescence); set-up: species or system mouse; conditions: dose 10, p.o., untreated control = 100
Source text: To determine whether acute administration of an Aβ lowering agent would reduce Aβ levels in vivo, non-transgenic rodents, e.g. mice or rats were used. Animals treated with the Aβ lowering agent were examined and compared to those untreated or treated with vehicle and brain levels of soluble Aβ42, Aβ40, Aβ38, and Aβ37 were quantitated by Meso Scale Discovery's (MSD) electrochemiluminescence detection technology. Treatment periods varied from hours (h) to days and were adjusted based on the results of the Aβ lowering once a time course of onset of effect could be established.
A typical protocol for measuring Aβ lowering in vivo is shown but it is only one of many variations that could be used to optimize the levels of detectable A. For example, Aβ lowering compounds were formulated in 20% of Captisol® (a sulfo-butyl ether of β-cyclodextrin) in water or 20% hydroxypropyl β cyclodextrin. The Aβ lowering agents were administered as a single oral dose or by any acceptable route of administration to overnight fasted animals. […]
Blood was collected by decapitation and exsanguinations in EDTA-treated collection tubes. Blood was centrifuged at 1900 g for 10 minutes (min) at 4° C. and the plasma recovered and flash frozen for later analysis. The brain was removed from the cranium and hindbrain. The cerebellum was removed and the left and right hemisphere were separated. The left hemisphere was stored at −18° C. for quantitative analysis of test compound levels. The right hemisphere was rinsed with phosphate-buffered saline (PBS) buffer and immediately frozen on dry ice and stored at −80° C. until homogenization for biochemical assays.
Mouse brains from non-transgenic animals were resuspended in 8 volumes of 0.4% DEA (diethylamine)/50 mM NaCl containing protease inhibitors (Roche-11873580001 or 04693159001) per gram of tissue, e.g. for 0.158 g brain, add 1.264 ml of 0.4% DEA. All samples were homogenized in the FastPrep-24 system (MP Biomedicals) using lysing matrix D (MPBio #6913-100) at 6 m/s for 20 seconds. Homogenates were centrifuged at 20800×g for 5 min and supernatants collected. Supernatants were centrifuged at 221.300×g for 50 min. The resulting high speed supernatants were then transferred to fresh eppendorf tubes. Nine parts of supernatant were neutralized with 1 part 0.5 M Tris-HCl pH 6.8 and used to quantify Aβ.
To quantify the amount of Aβ42, Aβ40, Aβ38, and Aβ37 in the soluble fraction of the brain homogenates, simultaneous specific detection of Aβ42, Aβ40, Aβ38, and Aβ37 was performed using MSD's electro-chemiluminescence multiplex detection technology. In this assay purified monoclonal antibodies specific for Abeta37 (JRD/Aβ37/3), Abeta38 (J&JPRD/Aβ38/5), Abeta40 (JRF/cAβ40/28), and Abeta42 (JRF/cAβ(342/26) were coated on MSD 4-plex plates. Briefly, the standards (a dilution of synthetic Aβ42, Aβ40, Aβ38, and Aβ37) were prepared in 1.5 ml Eppendorf tube in Ultraculture, with final concentrations ranging from 10000 to 0.3 pg/m. The samples and standards were co-incubated with Sulfo-tag labelled JRF/rAβ/2 antibody to the N-terminus of Aβ as detector antibody. 50 μl of conjugate/sample or conjugate/standards mixtures were then added to the antibody-coated plate. The plate was allowed to incubate overnight at 4° C. in order to allow formation of the antibody-amyloid complex. Following this incubation and subsequent wash steps the assay was finished by adding read buffer according to the manufacturer's instructions (Meso Scale Discovery, Gaitherburg, Md.).
The SULFO-TAG emits light upon electrochemical stimulation initiated at the electrode. MSD Sector instrument SI6000 was used for signal read-out.
The results are shown in Table 8 (value for untreated animals as control (Ctrl) was set at 100): […]

recombinant BACE2 protein, sequence (Q9Y5Z0 63-518): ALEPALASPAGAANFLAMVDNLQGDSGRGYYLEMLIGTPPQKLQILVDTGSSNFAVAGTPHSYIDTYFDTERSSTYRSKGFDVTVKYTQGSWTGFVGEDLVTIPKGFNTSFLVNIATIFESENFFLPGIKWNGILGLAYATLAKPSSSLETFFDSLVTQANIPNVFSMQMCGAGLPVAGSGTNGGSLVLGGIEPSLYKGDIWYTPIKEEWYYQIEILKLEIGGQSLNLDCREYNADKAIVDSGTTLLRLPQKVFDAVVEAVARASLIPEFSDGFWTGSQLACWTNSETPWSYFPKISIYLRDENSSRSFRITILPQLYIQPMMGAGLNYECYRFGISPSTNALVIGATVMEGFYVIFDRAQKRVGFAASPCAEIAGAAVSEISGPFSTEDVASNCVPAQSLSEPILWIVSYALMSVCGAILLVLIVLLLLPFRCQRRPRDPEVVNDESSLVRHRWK
T1 sequence (P56817 46-501): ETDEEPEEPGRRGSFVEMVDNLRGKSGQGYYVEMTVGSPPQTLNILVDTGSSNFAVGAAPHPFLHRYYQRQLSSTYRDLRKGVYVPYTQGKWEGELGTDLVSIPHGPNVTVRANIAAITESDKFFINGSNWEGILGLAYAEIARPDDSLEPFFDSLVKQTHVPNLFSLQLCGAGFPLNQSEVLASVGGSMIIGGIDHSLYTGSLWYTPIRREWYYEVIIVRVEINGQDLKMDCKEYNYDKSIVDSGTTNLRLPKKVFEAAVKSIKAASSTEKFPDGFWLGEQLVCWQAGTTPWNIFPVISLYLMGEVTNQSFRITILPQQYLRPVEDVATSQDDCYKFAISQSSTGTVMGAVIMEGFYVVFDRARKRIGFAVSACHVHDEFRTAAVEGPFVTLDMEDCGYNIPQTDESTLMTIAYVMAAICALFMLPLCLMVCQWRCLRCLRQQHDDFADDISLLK

| SMILES | IC50 ([1]; read-out: BACE1 Biochemical FRET based assay - Method 1 pIC50 (converted)) | BACE1 Biochemical FRET based assay - Method 2 pIC50 [2] | IC50 [3] | IC50 [4] | BACE2 Biochemical FRET based assay pIC50 [5] | BACE1 Biochemical FRET based assay - Method 1 pIC50 [1] | Cellular αLisa assay in SKNBE2 cells Abeta 42 pIC50 [3] | Cellular αLisa assay in SKNBE2 cells Abetatotal pIC50 [4] | Aβ40 (% vs Ctrl)_Mean ([6]; 2 h after administration) | Aβ42 (% vs Ctrl)_Mean ([6]; 2 h after administration) | Aβ40 (% vs Ctrl)_Mean ([6]; 4 h after administration) | Aβ42 (% vs Ctrl)_Mean ([6]; 4 h after administration) |
| --- | --- | --- | --- | --- | --- | --- | --- | --- | --- | --- | --- | --- |
| COc1cnc(C(=O)Nc2ccc(F)c([C@]3(C)Cn4nncc4C(N)=N3)c2)cn1 [Compound 3, N-{3-[(6R)-4-Amino-6-methyl-6,7-dihydro[1,2,3]triazolo[1,5-a]pyrazin-6-yl]-4-fluorophenyl}-5-methoxypyrazine-2-carboxamide] | 2.04 nM | 8.69 | 1.82 nM | 1.62 nM | 7.81 | – | – | – | – | – | – | – |
| C[C@@]1(c2cc(NC(=O)c3ccc(Cl)cn3)ccc2F)Cn2nncc2C(N)=N1 [Compound 4] | – | 8.75 | – | – | 8.56 | 8.76 | 8.77 | 8.88 | – | – | – | – |
| NC1=N[C@](CF)(c2cc(NC(=O)c3ccc(F)cn3)ccc2F)Cn2nncc21 [Compound 10, N-{3-[(6R)-4-amino-6-(fluoromethyl)-6,7-dihydro[1,2,3]triazolo[1,5-a]pyrazin-6-yl]-4-fluorophenyl}-5-fluoropyridine-2-carboxamide] | – | 8.39 | 24.5 nM | 24.5 nM | 8.49 | – | – | – | 95 % vs Ctrl | 79 % vs Ctrl | 116 % vs Ctrl | 87 % vs Ctrl |

From US9751886B2, “4-amino-6-phenyl-6,7-dihydro[1,2,3]triazolo[1,5-A]pyrazine derivatives as inhibitors of beta-secretase (BACE)” (Janssen Pharmaceutica NV, priority 2013, dated 2017)
